Patent US4888431A, “Process for the preparation of substituted fused tetrahydrocarbazole acetic acid derivatives” (American Home Products Corporation, priority 1989, dated 1989)

Experiments:
[1] = tested on: Male Swiss albino mice; assay: Drug Effects on Phenylbenzoquinone-induced Writhing in Mice; assay type: in vivo; conditions: 10 mg/kg, p.o., PBQ i.p. 60 minutes after dosing, writhes counted over 15 minutes
Protocol: A further test used to determine the utility of the compounds of the present invention is designated: Drug Effects on Phenylbenzoquinone-induced Writhing in Mice
The objective of this test is to determine the ability of test drugs to inhibit the nociceptive (pain) response of mice injected with a chemical irritant. This test is a primary screen for both peripheral and centrally acting analgesic drugs.
Male Swiss albino mice (15-25 g) are used. The animals are fasted for 18 hours prior to use but have free access to water.
Drugs are dissolved or suspended according to their solubility in 0.5% Tween 80 in distilled water. They are administered by gastric gavage in a volume of 5 mL/kg. For primary screening all drugs are administered at the arbitary dosage of 25 mg/kg, p.o. to a group of 10 mice.
A modification of the method of Siegmund et al, Proc. Soc. Exp. Biol. Med., 95, 729-731 (1957) is used. Groups of 5 mice are dosed with the test compound or vehicle control. Sixty minutes later the animals are injected i.p. with 0.3 mL/20 g body weight of a 0.02% solution of phenylbenzoquinone (PBQ; 2-phenyl-1,4-benzoquinone) and placed in individual observation boxes. The number of writhing or abdominal squirming movements made by each mouse during the following 15 minute period is counted. The experiment is repeated with another group of 5 mice and the mean number of writhes per mouse for a group of 10 mice is calculated.
Drug treated and vehicle-treated control groups are compared and the percentage inhibition of writhing conferred by the drug is calculated: [formula] where c=mean number of writhes in the control group where t=mean number of writhes in the test drug group

[2] = tested on: Male Sprague Dawley rats; assay: Preventative Adjuvant Edema (acute anti-inflammatory effect, hind paw edema volume); assay type: in vivo; conditions: 25 mg/kg, p.o., edema volume day 0 to day 3
Protocol: This test is a primary screen for anti-inflammatory drugs.
Male Sprague Dawley rats (180-200 g) are used. The animals have free access to water but food is withdrawn 18 hours before testing.
Freund's complete adjuvant is prepared by suspending 5 mg of killed and dried Mycobacterium butyricum (Difco) in 1 ml liquid paraffin. The test compounds are dissolved in distilled water or suspended in 0.5% Tween 80 in distilled water according to their solubility. For primary screening all drugs are administered by gastric lavage at the arbitrary dosage of 25 mg/kg, p.o. in a volume of 0.5 mL/100 g body weight to groups of 10 animals.
The method is essentially that described by Wax et al, J. Pharmacol. Exp. Ther., 192, 166-171 (1975). Groups of rats are injected intradermally in the left hind paw with 0.1 mL of Freund's complete adjuvant. The test compound or vehicle is administered immediately before the adjuvant, 24 hours and 48 hours after the adjuvant (days 0, 1 and 2). The injected hind paw volume is measured before the injection of adjuvant and 24 hours after the last drug administration (day 3) by means of a plethysmometer (Buxco Electronics Inc.). The difference between the hind paw volume on day 0 and day 3 represents the edema volume. Etodolac (25 mg/kg, p.o.) is included as a positive control.
The mean edema volume (expressed as mL ±SEM) is calculated for each group and the percentage inhibition of inflammation conferred by the drug is calculated: [formula] where c is the mean edema volume for the untreated controls and t is the mean edema volume for the drug treated group.

Structure (SMILES) | inhibition (Phenylbenzoquinone Writhing in Mice) [1] [%] | inhibition (Preventative Adjuvant Edema) [2] [%]
Cc1c(Cl)ccc2c3c([nH]c12)[C@]1(CC(=O)O)CC[C@@H]1CC3Cc1ccccc1 (relative stereo) [Example 1, cis-7-Chloro-1,2,2a,3,4,9-hexahydro-8-methyl-4-(phenylmethyl)-9bH-cyclobuta[a]carbazole-9b-acetic Acid] | 73 | 26
Cc1c(Cl)ccc2c3c([nH]c12)[C@@]1(CC(=O)O)CC[C@H]1CC3 (relative stereo) [Example 2, cis-7-Chloro-1,2,2a,3,4,9-hexahydro-8-methyl-9bH-cyclobuta[a]carbazole-9b-acetic Acid] | 56 | 85
O=C(O)C[C@]12CC[C@H]1CCc1c2[nH]c2ccccc12 (relative stereo) [Example 4, cis-1,2,2a,3,4,9-Hexahydro-9bH-cyclobuta[a]carbazole-9b-acetic Acid] | 21 | 64
CCCc1cc(C(C)=O)cc2c3c([nH]c12)[C@@]1(CC(=O)O)CC[C@H]1CC3 (relative stereo) [Example 5, cis-6-Acetyl-1,2,2a,3,4,9-hexahydro-8-propyl-9bH-cyclobuta[a]carbazole-9b-acetic Acid] | 56 | 
CCc1cccc2c3c([nH]c12)[C@]1(CC(=O)O)C[C@@H]1CC3 (relative stereo) [Example 6, (1a. α,8b. α)-7-Ethyl-1,1a,2,3,8,8b-hexahydrocyclopropa[a]carbazole-8b-acetic Acid] | 27 | 13
O=C(O)C[C@@]12CC[C@@H]1CC(Cc1ccccc1)c1c2[nH]c2ccccc12 (relative stereo) [Example 7, cis-1,2,2a,3,4,9-Hexahydro-4-(phenylmethyl)-9bH-cyclobuta[a]carbazole-9b-acetic Acid] | 0 | 
